ChEMBL document CHEMBL1201862, “PubChem BioAssay data set” (2004)
Activity calls are given as the source filed them.

Experiments:
[1] = molecular target: Leukocyte tyrosine kinase receptor (Homo sapiens, UniProt P29376); assay: Navigating the Kinome. Panel member name: LTK; type: functional
[2] = molecular target: Macrophage colony-stimulating factor 1 receptor (Homo sapiens, UniProt P07333); type: functional;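 also: value comes from the Navigating the Kinome screening panel, CSF1R member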
[3] = molecular target: T1, Mitogen-activated protein kinase kinase kinase kinase 2 (Homo sapiens, UniProt Q12851); type: functional;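 also: measured as one member of a kinome-wide kinase panel, with MAP4K2 as the panel entry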
T1 sequence (Q12851 whole entry): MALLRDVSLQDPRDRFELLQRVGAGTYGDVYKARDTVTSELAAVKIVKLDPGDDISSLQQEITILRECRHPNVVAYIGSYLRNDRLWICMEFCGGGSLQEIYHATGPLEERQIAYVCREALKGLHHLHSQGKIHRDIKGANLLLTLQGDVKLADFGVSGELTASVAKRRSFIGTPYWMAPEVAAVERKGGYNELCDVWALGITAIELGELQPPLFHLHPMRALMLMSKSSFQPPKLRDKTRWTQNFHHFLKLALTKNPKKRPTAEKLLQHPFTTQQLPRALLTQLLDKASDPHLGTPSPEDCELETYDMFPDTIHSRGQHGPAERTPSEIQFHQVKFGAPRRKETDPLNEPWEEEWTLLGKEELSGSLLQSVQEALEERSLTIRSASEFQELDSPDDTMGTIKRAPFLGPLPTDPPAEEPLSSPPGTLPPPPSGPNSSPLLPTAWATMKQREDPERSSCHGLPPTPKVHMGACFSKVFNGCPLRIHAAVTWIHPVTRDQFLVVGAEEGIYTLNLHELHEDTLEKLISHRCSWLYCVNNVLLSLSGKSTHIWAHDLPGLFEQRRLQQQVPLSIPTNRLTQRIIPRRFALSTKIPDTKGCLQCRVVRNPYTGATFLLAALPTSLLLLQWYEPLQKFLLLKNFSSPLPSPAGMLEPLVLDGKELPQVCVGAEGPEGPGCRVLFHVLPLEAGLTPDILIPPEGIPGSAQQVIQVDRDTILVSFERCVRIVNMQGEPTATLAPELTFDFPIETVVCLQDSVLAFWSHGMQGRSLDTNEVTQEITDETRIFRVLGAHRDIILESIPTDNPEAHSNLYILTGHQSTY

[4] = molecular target: T2, Serine/threonine-protein kinase D3 (Homo sapiens, UniProt O94806); type: functional;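 also: determined within a kinase panel screen, with PRKCN as the panel member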
T2 sequence (O94806 whole entry): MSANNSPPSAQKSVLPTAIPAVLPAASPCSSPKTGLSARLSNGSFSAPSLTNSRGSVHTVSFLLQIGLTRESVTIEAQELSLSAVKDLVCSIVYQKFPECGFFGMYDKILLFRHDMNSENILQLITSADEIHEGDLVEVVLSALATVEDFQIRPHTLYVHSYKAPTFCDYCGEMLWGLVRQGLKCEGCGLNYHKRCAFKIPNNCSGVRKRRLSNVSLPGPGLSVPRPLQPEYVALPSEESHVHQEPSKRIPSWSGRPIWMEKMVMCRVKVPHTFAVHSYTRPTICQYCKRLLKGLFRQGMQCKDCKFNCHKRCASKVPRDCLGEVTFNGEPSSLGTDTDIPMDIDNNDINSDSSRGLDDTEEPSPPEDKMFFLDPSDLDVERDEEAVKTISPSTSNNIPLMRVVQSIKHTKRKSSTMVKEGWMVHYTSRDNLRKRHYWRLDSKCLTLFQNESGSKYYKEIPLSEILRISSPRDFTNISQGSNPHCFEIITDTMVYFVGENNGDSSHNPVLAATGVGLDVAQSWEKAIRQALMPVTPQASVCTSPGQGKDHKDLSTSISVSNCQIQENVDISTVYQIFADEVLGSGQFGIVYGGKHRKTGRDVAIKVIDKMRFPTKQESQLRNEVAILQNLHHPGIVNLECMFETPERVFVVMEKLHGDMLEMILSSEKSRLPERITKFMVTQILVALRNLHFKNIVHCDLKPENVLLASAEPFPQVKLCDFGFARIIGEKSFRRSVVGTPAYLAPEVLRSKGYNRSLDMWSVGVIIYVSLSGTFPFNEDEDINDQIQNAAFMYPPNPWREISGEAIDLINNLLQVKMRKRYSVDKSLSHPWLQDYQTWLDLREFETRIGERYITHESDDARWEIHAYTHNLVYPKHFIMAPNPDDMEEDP

[5] = molecular target: Vascular endothelial growth factor receptor 1 (Homo sapiens, UniProt P17948); type: functional;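 also: measured within a kinome-wide profiling panel, FLT1 as the panel member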
[6] = molecular target: Dual specificity mitogen-activated protein kinase kinase 1 (Homo sapiens, UniProt Q02750); assay: Navigating the Kinome. Panel member name: MAP2K1; type: functional
Dual specificity mitogen-activated protein kinase kinase 1, sequence (Q02750 whole entry): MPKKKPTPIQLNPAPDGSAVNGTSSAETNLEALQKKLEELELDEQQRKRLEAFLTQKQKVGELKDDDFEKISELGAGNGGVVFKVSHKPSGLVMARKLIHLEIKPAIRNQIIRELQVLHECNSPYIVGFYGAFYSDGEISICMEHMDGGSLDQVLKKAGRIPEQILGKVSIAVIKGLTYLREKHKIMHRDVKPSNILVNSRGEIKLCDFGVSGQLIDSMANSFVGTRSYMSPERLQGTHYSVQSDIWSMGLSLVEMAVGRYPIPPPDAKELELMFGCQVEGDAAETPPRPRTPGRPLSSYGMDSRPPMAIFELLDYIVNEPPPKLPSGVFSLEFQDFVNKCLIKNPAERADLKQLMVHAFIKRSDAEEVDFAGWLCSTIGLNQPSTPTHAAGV

[7] = molecular target: Dual specificity mitogen-activated protein kinase kinase 2 (Homo sapiens, UniProt P36507); assay: Navigating the Kinome. Panel member name: MAP2K2; type: functional
Dual specificity mitogen-activated protein kinase kinase 2, sequence (P36507 whole entry): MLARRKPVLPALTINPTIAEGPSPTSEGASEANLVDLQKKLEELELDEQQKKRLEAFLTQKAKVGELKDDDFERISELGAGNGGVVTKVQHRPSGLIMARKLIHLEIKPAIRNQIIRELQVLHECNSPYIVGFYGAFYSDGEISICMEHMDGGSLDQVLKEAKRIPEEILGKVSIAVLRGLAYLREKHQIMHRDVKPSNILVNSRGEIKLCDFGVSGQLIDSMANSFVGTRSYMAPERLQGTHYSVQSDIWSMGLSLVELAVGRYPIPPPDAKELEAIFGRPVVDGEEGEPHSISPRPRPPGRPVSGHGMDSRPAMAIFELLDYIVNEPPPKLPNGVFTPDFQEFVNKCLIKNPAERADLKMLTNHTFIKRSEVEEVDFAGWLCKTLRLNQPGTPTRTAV

[8] = molecular target: Death-associated protein kinase 3 (Homo sapiens, UniProt O43293); type: functional;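 also: measured as one member of a kinome-wide profiling panel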
Death-associated protein kinase 3, sequence (O43293 whole entry): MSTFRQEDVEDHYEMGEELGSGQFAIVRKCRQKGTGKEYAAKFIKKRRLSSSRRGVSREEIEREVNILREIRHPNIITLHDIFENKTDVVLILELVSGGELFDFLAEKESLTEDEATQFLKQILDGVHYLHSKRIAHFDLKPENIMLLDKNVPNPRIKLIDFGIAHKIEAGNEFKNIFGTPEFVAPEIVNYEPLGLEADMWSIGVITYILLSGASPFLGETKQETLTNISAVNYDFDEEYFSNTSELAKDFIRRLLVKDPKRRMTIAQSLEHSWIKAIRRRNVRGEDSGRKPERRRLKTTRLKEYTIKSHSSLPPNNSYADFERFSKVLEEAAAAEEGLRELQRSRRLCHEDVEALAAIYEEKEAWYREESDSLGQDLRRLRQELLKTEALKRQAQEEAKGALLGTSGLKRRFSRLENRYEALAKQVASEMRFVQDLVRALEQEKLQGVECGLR

[9] = molecular target: Tyrosine-protein kinase BTK (Homo sapiens, UniProt Q06187); type: functional
[10] = molecular target: High affinity nerve growth factor receptor (Homo sapiens, UniProt P04629); type: functional;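 also: NTRK1 tested as one member of a kinome-wide profiling panel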
High affinity nerve growth factor receptor, sequence (P04629 whole entry): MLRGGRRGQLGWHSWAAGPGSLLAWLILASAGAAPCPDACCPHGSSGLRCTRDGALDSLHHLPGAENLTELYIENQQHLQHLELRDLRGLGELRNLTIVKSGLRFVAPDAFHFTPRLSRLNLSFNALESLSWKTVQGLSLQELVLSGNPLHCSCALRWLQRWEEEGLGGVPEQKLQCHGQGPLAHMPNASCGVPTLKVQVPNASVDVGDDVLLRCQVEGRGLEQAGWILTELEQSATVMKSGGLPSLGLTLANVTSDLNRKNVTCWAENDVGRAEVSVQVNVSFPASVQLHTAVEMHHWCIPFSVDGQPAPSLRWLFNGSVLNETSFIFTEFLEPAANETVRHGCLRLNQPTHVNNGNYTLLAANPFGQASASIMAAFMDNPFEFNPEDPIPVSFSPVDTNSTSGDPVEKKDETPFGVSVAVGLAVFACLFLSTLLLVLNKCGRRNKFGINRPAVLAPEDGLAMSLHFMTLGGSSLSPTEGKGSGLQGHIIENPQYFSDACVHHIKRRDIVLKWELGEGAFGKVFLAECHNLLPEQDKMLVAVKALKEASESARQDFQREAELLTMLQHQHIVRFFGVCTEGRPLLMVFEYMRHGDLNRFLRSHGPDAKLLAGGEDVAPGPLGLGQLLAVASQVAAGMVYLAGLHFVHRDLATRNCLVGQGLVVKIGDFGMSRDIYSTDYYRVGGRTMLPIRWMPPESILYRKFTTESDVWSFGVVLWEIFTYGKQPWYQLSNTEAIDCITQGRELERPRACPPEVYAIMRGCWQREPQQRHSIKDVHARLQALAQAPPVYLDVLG

[11] = molecular target: Tyrosine-protein kinase ABL1 (Homo sapiens, UniProt P00519); type: functional
Tyrosine-protein kinase ABL1, sequence (P00519 whole entry): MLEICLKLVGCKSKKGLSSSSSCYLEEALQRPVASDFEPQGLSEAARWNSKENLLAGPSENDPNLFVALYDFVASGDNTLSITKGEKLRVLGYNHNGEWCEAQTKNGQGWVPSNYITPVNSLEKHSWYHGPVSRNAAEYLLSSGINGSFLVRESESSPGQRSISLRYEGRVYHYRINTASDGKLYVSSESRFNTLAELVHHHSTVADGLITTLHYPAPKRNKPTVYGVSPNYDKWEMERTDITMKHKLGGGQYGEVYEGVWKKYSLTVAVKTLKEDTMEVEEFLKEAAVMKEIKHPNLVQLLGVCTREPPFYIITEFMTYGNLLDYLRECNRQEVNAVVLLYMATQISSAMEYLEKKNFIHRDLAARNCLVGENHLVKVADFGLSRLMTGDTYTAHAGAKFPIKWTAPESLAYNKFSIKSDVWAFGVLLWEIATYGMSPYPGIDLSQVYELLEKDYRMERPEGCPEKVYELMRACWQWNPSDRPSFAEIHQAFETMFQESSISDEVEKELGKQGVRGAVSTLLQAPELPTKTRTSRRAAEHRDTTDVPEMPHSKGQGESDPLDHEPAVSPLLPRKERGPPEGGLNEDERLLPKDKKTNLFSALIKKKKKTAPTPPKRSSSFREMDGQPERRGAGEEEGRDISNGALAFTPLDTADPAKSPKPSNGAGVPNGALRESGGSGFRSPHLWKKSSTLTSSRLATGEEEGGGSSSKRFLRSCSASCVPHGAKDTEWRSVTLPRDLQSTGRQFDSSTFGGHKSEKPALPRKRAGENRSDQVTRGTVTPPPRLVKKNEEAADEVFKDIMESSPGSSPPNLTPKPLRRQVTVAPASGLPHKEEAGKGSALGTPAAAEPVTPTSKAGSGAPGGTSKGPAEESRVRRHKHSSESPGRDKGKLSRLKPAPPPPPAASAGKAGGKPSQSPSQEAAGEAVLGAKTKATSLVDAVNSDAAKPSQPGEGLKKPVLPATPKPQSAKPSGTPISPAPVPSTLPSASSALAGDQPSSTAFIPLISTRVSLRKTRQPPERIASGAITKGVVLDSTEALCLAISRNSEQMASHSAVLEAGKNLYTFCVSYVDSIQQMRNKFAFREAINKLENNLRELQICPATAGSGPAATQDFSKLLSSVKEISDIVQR

Activated CDC42 kinase 1 = Activated CDC42 kinase 1 (Homo sapiens, UniProt Q07912); assay: Navigating the Kinome. Panel member name: ACK1; type: functional
Activated CDC42 kinase 1, sequence (Q07912 whole entry): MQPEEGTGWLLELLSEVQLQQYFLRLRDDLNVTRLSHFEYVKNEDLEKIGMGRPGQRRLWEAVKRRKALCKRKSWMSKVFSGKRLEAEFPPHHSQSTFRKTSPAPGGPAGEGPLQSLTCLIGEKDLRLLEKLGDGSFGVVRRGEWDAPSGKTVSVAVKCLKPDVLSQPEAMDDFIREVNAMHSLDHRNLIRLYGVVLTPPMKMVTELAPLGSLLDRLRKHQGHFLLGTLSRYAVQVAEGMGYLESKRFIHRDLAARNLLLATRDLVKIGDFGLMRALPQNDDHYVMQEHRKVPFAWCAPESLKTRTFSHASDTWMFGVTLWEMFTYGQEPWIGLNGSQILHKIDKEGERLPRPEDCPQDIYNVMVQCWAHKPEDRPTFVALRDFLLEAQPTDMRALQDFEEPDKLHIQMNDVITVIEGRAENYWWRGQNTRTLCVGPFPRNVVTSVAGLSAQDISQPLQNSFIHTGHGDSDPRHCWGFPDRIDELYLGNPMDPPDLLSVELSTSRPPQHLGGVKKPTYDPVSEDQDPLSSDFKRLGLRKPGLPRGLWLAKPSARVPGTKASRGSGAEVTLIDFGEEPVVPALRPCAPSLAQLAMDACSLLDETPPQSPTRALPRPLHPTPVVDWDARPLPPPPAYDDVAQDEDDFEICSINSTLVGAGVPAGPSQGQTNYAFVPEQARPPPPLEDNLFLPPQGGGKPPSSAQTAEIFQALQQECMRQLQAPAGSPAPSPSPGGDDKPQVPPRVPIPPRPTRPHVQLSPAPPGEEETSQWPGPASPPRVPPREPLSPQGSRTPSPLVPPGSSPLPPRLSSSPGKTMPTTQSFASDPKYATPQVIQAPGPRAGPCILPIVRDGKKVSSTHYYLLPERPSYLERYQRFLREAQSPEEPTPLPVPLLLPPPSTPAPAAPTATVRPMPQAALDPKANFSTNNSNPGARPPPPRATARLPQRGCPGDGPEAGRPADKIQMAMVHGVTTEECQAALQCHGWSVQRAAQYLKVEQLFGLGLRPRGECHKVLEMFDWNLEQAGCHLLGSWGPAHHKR

[12] = molecular target: T3, Tyrosyl-DNA phosphodiesterase 2 (Homo sapiens, UniProt O95551); assay: potency against TDP2 phosphodiesterase activity – biochemical, epi absorbance, IC50, dose response (AID 743297)
T3 sequence (O95551 whole entry): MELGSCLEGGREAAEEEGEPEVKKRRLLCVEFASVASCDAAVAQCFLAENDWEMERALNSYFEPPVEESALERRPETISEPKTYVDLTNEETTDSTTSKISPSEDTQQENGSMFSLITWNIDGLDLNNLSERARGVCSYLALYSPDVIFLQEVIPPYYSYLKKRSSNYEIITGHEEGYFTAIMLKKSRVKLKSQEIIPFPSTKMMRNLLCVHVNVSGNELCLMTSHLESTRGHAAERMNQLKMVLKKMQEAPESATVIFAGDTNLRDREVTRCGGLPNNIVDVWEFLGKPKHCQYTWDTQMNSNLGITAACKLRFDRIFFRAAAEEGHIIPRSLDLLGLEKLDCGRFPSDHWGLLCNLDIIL

Leukocyte tyrosine kinase receptor, sequence (P29376 whole entry): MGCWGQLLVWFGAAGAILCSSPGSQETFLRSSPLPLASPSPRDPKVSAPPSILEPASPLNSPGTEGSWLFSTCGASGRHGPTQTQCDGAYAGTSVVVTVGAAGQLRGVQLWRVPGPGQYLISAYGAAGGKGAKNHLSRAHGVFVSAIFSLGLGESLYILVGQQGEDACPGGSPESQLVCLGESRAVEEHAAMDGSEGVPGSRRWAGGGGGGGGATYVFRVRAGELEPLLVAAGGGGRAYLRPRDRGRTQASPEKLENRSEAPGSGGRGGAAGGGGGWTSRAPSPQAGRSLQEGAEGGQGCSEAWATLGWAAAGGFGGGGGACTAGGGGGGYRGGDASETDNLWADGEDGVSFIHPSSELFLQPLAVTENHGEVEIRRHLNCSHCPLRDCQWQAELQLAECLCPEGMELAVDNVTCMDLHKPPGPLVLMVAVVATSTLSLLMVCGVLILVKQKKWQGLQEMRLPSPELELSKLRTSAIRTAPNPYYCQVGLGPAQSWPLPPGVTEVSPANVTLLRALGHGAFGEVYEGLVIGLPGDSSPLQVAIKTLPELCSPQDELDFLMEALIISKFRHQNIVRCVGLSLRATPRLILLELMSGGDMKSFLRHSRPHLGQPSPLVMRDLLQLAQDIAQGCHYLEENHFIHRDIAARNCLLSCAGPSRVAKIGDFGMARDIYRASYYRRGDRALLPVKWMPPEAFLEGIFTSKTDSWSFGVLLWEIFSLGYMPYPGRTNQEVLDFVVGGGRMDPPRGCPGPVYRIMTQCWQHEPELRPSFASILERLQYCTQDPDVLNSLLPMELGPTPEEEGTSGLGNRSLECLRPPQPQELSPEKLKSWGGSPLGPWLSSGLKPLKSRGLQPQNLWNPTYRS

Row | SMILES | Ki [1] | Ki [2] | Ki [3] | Ki [4] | Ki [5] | Ki [6] | Ki [7] | Ki [8] | Ki [9] | Ki [10] | Ki [11] | Ki (Activated CDC42 kinase 1) | IC50 [12] | further results
1 | OC1CCC(Nc2nc(Cl)cc(-c3c[nH]c4ncccc34)n2)CC1 (configuration not stated) | 0.251 µM (active) | 0.2 µM (active) | 0.0398 µM (active) | 0.0158 µM (active) | 0.158 µM (active) | 0.0316 µM (active) | 0.0501 µM (active) | 0.0794 µM (active) | > 1.26 µM (inactive) | 0.398 µM (active) | 0.631 µM (active) | 3.16 µM (active) | – | pKi [1]: 6.6; pKi [2]: 6.7; pKi [3]: 7.4; pKi [4]: 7.8; pKi [5]: 6.8; pKi [6]: 7.5; pKi [7]: 7.3; pKi [8]: 7.1; pKi [10]: 6.4; pKi [11]: 6.2; pKi (Activated CDC42 kinase 1): 5.5
2 | CCN(CC)CCCC(C)n1c2nc(=O)[nH]c(=O)c-2nc2cc(Cl)ccc21 (configuration not stated) | – | – | – | – | – | – | – | – | – | – | – | – | 10.5 µM (inactive) | –
3 | COc1cccc(CNC(=O)c2cnc(-c3ccncc3)nc2)c1 | > 2.51 µM (inactive) | > 2.51 µM (inactive) | > 2.51 µM (inactive) | > 3.98 µM (inactive) | > 3.98 µM (inactive) | > 3.16 µM (inactive) | > 3.98 µM (inactive) | > 5.01 µM (inactive) | > 6.31 µM (inactive) | > 3.16 µM (inactive) | > 3.98 µM (inactive) | > 3.98 µM (inactive) | – | –
4 | O=C(COC(=O)c1ccc([N+](=O)[O-])s1)Nc1ccc(F)cc1 | – | – | – | – | – | – | – | – | – | – | – | – | 64.2 µM (inactive) | –
